Where no end group is shown, it is not given here.
Tests used:
HUVECs = test: Western blot of protein expression in HUVECs; format: cell-based, human; conditions: 0.5-8.0 μmol/L, 24 h
Description: 3.2 After the third generation of human umbilical vein endothelial cells (HUVECs) are cultured in a 6-well plate to more than 80% fusion, the polypeptide mPEG-SC20k-HM-3 is added to final concentrations of 0.5, 1.0, 2.0, 4.0, 8.0 μmol/L, and PBS is used as a blank control. The cells are incubated in a CO2 incubator at 37° C. for 24 h; the cells are digested with 0.25% trypsin and counted, the solution is centrifuged at 3000 rpm for 5 min, and the cells are collected.
3.3 A protein extract solution is added at 20 μL/1×10^5 cells, and the cells are pipetted and dispersed, and stand at 4° C. for 30 min to lyse the cells.
3.4 1/4 volume of 5×protein loading buffer is added, and boiling water bath is performed for 5-10 min.
3.5 20 μL of protein sample is taken and 10% SDS-PAGE electrophoresis is performed.
3.6 The protein on the gel is transferred to the PVDF membrane by using a wetting transfer method with a constant current of 100 mA for 1-2.5 h.
3.7 The PVDF membrane is blocked with a blocking solution at room temperature for 2 h.
3.8 The membrane is washed for 3 times with PBST, 5 min each time. A primary antibody is added and the membrane stands at 4° C. overnight or is incubated at 37° C. for 2 h.
3.9 The membrane is washed for 3 times with PBST, 5 min each time. A secondary antibody is added and the membrane is incubated at room temperature for more than 2 h. […]

[1] = test system: tumor in BALB/c nude mice; test: in vivo pharmacodynamics (antitumor) of PEG-modified HM-3 in BALB/c nude mice
Text: Four different types of mPEG-ALD and mPEG-SC with different molecular weights are selected to modify the polypeptide […](named HM-3), i.e., mPEG-ALD5k, mPEG-ALD10k, mPEG-SC10k, mPEG-SC20k, and modification reaction conditions are explored and optimized.

IL-1β = IL-1β production by mouse peritoneal macrophages (LPS, ELISA); format: cell-based, C57BL/6 mice; conditions: LPS 5 μg/mL, 48 h
Description: In the test, mice are divided into […], namely a blank control group, a lipopolysaccharide (LPS) model group, a dexamethasone group, and mPEG-SC20k-HM-3 groups at different doses (0.56, 1.12, 2.25, 4.50, 9.00 μmol/L).
(1) IL-1 production: mice are intraperitoneally injected with 1 mL of broth medium (containing 6% of starch). After three days, mouse peritoneal macrophages are taken aseptically and washed twice with RPMI 1640 medium, and the cell concentration is adjusted to 2×10^6 cells/mL. The cells are injected into a 24-well culture plate, 1 mL per well, and the cells are incubated in a cell incubator for 3 h, and vibrated once every 30 min to make the cells fully adhere. Then the cells are washed twice with culture solution to remove non-adherent cells, are cultured continuously for 48 h after administration, and are centrifuged at 1000 r for 15 min. The supernatant is collected as a sample with IL-1β to be tested. (2) Determination of IL-1 content: various solutions are prepared; tested samples and standard substances with different concentrations (100 μL/well) are added into the corresponding wells, reaction wells are sealed with plate-sealing adhesive tape, and incubation is performed at 37° C. for 90 min; the plate is washed four times; biotinylated antibody working solution (100 μL/well) is added, the reaction wells are sealed with plate-sealing adhesive tape, and incubation is performed at 37° C. for 60 min; the plate is washed four times; enzyme conjugate working solution (100 μL/well) is added, the reaction wells are sealed with plate-sealing adhesive tape, and incubation is performed at 37° C. for 30 min; the plate is washed four times; chromogenic reagent (100 μL/well) is added, and incubation is performed at 37° C. for 10-20 min in the absence of light; stop solution (100 μL/well) is added, and the OD 450 nm absorbance is measured immediately after uniform mixing (within 5 min).

CIA mouse models = test: collagen-induced arthritis (CIA) mouse models; format: in vivo, DBA/1 mice; conditions: for clinical scoring / swelling of joints / swelling of paws: 5 times
[2] = high dose 40 mg/kg once the other day
[3] = low dose 10 mg/kg once the other day
[4] = medium dose 20 mg/kg once the other day

Substance: mPEG-SC20k-Ile-Val-Arg-Arg-Ala-Asp-Arg-Ala-Ala-Val-Pro-Gly-Gly-Gly-Gly-Arg-Gly-Asp ({mPEG‑SC 20k}-IVRRADRAAVPGGGGRGD) [polypeptide III, No. 3]
- expression of VEGF in HUVECs (HUVECs): down-regulated
- expression of integrin αν, integrin β3, MEK1, p-MEK1, PI3K, AKT1, p-AKT1, ERK1/2 and p-ERK1/2 in HUVECs (HUVECs): down-regulated
- antitumor effect in vivo ([1]; BALB/c nude mice): 50.23%
- toxicity at an effective dose in vivo ([1]; body weight of nude mice basically stable): very low toxicity or no toxicity
- elimination half life in vivo ([1]; compared with HM-3): greatly improved
- IL-1β content (IL-1β; 0.56 μmoL/L): 89.77 ± 7.22 pg/mL
- Inhibition rate (IL-1β; 0.56 μmoL/L): 90.93%
- IL-1β content (IL-1β; 1.12 μmoL/L): 35.17 ± 17.71 pg/mL
- Inhibition rate (IL-1β; 1.12 μmoL/L): 96.45%
- IL-1β content (IL-1β; 2.25 μmoL/L): 43.78 ± 10.16 pg/mL
- Inhibition rate (IL-1β; 2.25 μmoL/L): 95.58%
- IL-1β content (IL-1β; 4.50 μmoL/L): 32.04 ± 6.52 pg/mL
- Inhibition rate (IL-1β; 4.50 μmoL/L): 96.76%
- IL-1β content (IL-1β; 9.00 μmoL/L): 104.83 ± 2.44 pg/mL
- Inhibition rate (IL-1β; 9.00 μmoL/L): 89.41%
- clinical scoring (CIA mouse models; [2]): 2.00 ± 2.37
- swelling of joints (CIA mouse models; [2]): 0.07 mm
- swelling of paws (CIA mouse models; [2]): 0.14 ± 0.42 mm
- clinical scoring (CIA mouse models; [3]): 4.83 ± 2.99
- swelling of joints (CIA mouse models; [3]): 0.23 mm
- swelling of paws (CIA mouse models; [3]): 0.37 ± 0.35 mm
- clinical scoring (CIA mouse models; [4]): 6.33 ± 4.23
- swelling of joints (CIA mouse models; [4]): 0.12 mm
- swelling of paws (CIA mouse models; [4]): 0.34 ± 0.42 mm
- therapeutic effect on collagen-induced arthritis in mice (conclusion) (CIA mouse models; mouse, in vivo): CONCLUSION: polypeptide III has therapeutic effect on collagen-induced arthritis in mice

Source: patent US20220202912A1, “Polypeptides in Preparation of Drugs for Treatment or Prevention of Rheumatoid Arthritis” (priority 2011, published 2022)
